“Also recorded” adds a separate entry of the source. Read-outs that look alike come from different tables or passages of the source.
Tested on: human umbilical vein endothelial (HUVE) cells
Test: bFGF-induced proliferation of HUVE cells (uridine incorporation)
Type: cell-based
Settings: for antiproliferative activity, plasma TFPI compared with HepG2 TFPI: HUVE cell proliferation assay, FIG. 4; for Effect on Proliferation: bFGF 10 ng/ml, 48 hours, HUVE cells
Experimental: Proliferation assays familiar to those skilled in the art using human umbilical vein endothelial (HUVE) cells were used to determine the effect of TFPI on bFGF-induced proliferation of human umbilical vein endothelial cells.
The proliferation assay involved the routine culturing of human umbilical vein endothelial (HUVE) cells to confluency in EGM media. The cells were trypsinized and plated in a 96-well plate at 5000 cells per well per 100 μL EBM media. The cells were allowed to adhere to the plate for at least 2 hours. Next, bFGF at 10 ng/ml and TFPI at various concentrations were added to the wells. The cells were cultured for 48 hours after which cell proliferation was determined using a standard uridine incorporation method.
Proliferation assays using HUVE cells, as described in Example 1, were used to determine the effect of heparin on TFPI inhibition of bFGF-induced proliferation. The purpose of this study was to determine whether heparin was able to neutralize the antiproliferative activity of TFPI.
TFPI was pre-incubated with equimolar concentrations of heparin and with concentrations of heparin that were five-fold in excess of the concentration of TFPI. The results are summarized below and are presented graphically in FIGS. 5a and 5b.
Cell proliferation assays, as described in Example 1, were conducted to determine the relative potency of native TFPI versus recombinant TFPI.
Cell proliferation assays, as described in Example 1, were conducted using full length recombinant TFPI, Platelet Factor 4 (PF-4), and recombinant Kringle 1-3 of Angiostatin™ peptide. Both PF-4 and Angiostatin™ peptide are known endogenous inhibitors of angiogenesis. PF-4 is a protein involved in the blood coagulation cascade and is referenced as an inhibitor of angiogenesis by Maione, T. et al. in the article “Inhibition of Angiogenesis by Recombinant Human Platelet Factor-4 and Related Peptides” Science 247:77 (1990). Angiostatin is a fragment of plasminogen and its inhibitory effect on angiogenesis is described by Cao, Y. et al. in the article “Kringle Domains of Human Angiostatin” J. Biol. Chem. 271:1 (1996).
PF-4 and TFPI were tested for inhibition of human umbilical vein endothelial cell (HUVEC) proliferation. Angiostatin™ peptide was tested for the inhibition of bovine capillary endothelial (BCE) proliferation.
Cell proliferation assays, as described above in Example 1, were conducted using fragments of recombinant TFPI containing the following domains: Kunitz-1, Kunitz-2, or Kunitz-3.

[1] = Example 3, native versus recombinant TFPI, read-out: Fifty percent inhibition of the bFGF-induced proliferation of HUVE cells

Substance | antiproliferative activity, plasma TFPI compared with HepG2 TFPI | Effect on Proliferation | IC50 [1] [nM] | other results
PF-4: Platelet Factor 4, protein of the blood coagulation cascade, known endogenous inhibitor of angiogenesis [reference compound] | – | – | – | IC50 (Example 4, read-out: concentration required for 50% inhibition of HUVE cell proliferation): 1250 nM
Purified From HepG2 cells: TFPI purified from HepG2 cells containing full length and carboxyl-terminal lacking molecules | comparable activities | Inhibition of Proliferation | – | –
Purified From Human Plasma: full length, fully glycosylated TFPI (molecular weight 43,000) purified from human plasma | comparable activities | Inhibition of Proliferation | 75 | –
Recombinant, Full Length: full length, partially glycosylated TFPI (molecular weight 35,000) produced recombinantly | – | Inhibition of Proliferation | 150 | potency relative to recombinant PF-4 (HUVE cell proliferation, 50% inhibition compared): approximately ten times more potent; IC50 (HUVEC proliferation, Example 4 table, read-out: Concentration for 50% Inhibition): ~125 nM; activity relative to recombinant Kringle 1-3 of angiostatin (TFPI on HUVE cells versus Kringle 1-3 on BCE cells): more active
TFPI: tissue factor pathway inhibitor, source not specified in the heparin experiment (SEQ ID No. 1) | – | – | – | Antiproliferative Activity of TFPI (effect of heparin) (TFPI pre-incubated with equimolar heparin): did not lose its antiproliferative activity; also recorded: No Effect; Antiproliferative Activity of TFPI (effect of heparin) (TFPI pre-incubated with heparin five-fold in excess of TFPI): did not lose its antiproliferative activity; also recorded: No Effect
